From paper PMC9603901, “Therapeutic Potential of Antimicrobial Peptide PN5 against Multidrug-Resistant E. coli and Anti-Inflammatory Activity in a Septic Mouse Model” (Microbiology Spectrum, 2022)

How the values were obtained:
[1] = tested on: RAW 264.7 cells; assay: MTT cell viability; assay type: cell-based, mouse; conditions: 6.25 μM, 24 h
Experimental: (§1) RAW 264.7 cells (mouse macrophage cells) were maintained in high-glucose Dulbecco’s modified Eagle medium (DMEM) (Welgene, Daegu, South Korea) supplemented with 10% fetal bovine serum (FBS) (Gibco) and 1% penicillin at 37°C in humidified 5% CO2. Cells (2 × 10^5 cells well^−1) were seeded into DMEM supplemented with 10% FBS medium in a 96-well plate. The MTT assay was performed after culturing the cells in 96-well plates at a density of 2 × 10^5 cells well^−1, followed by treatment with serially diluted PN5, magainin 2, and melittin. After 24 h, the medium was discarded, and 100 μL DMEM and 10% FBS medium containing 0.5 mg mL^−1 MTT were added to each well. After 4 h of incubation, the medium was discarded and dimethyl sulfoxide was added to each well to solubilize the formazan. The optical densities at 570 and 650 nm (OD570 and OD650, respectively) of the treated cells were compared to those of control cells. The hemolytic activity of the peptides was evaluated as the release of hemoglobin from an 8% mRBC suspension. A 100-μL aliquot of the 8% mRBC suspension was added to the wells of a 96-well plate, and 100 μL of peptide solution in phosphate-buffered saline (PBS) was added at a final peptide concentration of 200 μM. After incubation for 1 h at 37°C with shaking (50 rpm), the suspensions were centrifuged at 1,000 × g for 5 min. The absorbance of the supernatant was measured at 414 nm using a Versa Max microplate reader (Molecular Devices). As a control, no hemolysis and complete hemolysis were determined in PBS and 0.1% Triton X-100, respectively. The degree of hemolysis was calculated using the following equation as described in reference: %hemolysis=[(A414withpeptide-A414withPBS)/(A414with0.1%TritonX-100-A414 with PBS)] × 100

[2] = tested on: L. monocytogenes KCTC 3710; assay type: cell-based, Listeria monocytogenes; conditions: microdilution, BHI, 18 to 24 h, 37°C, three independent experiments
Experimental: (§2) Bacterial cells were cultured at 37°C in the appropriate culture media with shaking (180 rpm). Luria-Bertani broth (LB) (244620; BD Difco) was used for E. coli ATCC 25922, ASEC strains, and B. subtilis KCTC 2217. Nutrient broth (NB) (234000; BD Difco) was used for P. aeruginosa ATCC 27853, S. Typhimurium KCTC 1926, and A. baumannii KCTC 2508. Tryptic soy broth (TSB) (211825; BD Difco) was used for S. aureus ATCC 25923. Finally, brain heart infusion (BHI) (237500; BD Difco) was used for L. monocytogenes KCTC 3710. The antimicrobial activity of each peptide was determined using microdilution assays. To this end, 2-fold serial dilution series of each peptide (from 1 to 64 μM) were added to duplicate media with 10 mM sodium phosphate buffer (pH 7.4). Fifty microliters of the peptide and antibiotic solution was added to each well of a 96-well plate (32096, surface nontreatment; SPL Life Sciences). Then, 50 μL of 2 × 10^5 CFU mL^−1 of bacteria was added to each well, and the samples were incubated for 18 to 24 h without shaking at 37°C.

[3] = tested on: RAW 264.7 cells; assay: IncuCyte Cytotox green time-dependent cytotoxicity; assay type: cell-based, mouse; conditions: 25 μM
Experimental: An IncuCyte cytotoxicity assay (Essen BioScience, Inc., Ann Arbor, MI, USA) was performed to evaluate time-dependent cytotoxicity. RAW 264.7 cells (2 × 10^5 cells well^−1) were seeded into 96-well culture plates and then treated with peptides and IncuCyte Cytotox green reagent (Essen BioScience, Inc.). Up to 200 μM PN5 and 25 μM melittin were used to treat RAW 264.7 cells, with the concentrations serially diluted by half. […] The cells were stained with IncuCyte Cytotox green reagent. The viability was measured using IncuCyte software (Essen BioScience, Inc.) ([56]).

[4] = tested on: MDR E. coli ASEC 12; assay: microbe, parasite or virus in culture; assay type: cell-based, Escherichia coli; conditions: microdilution, LB, 18 to 24 h, 37°C, three independent experiments
Experimental: as §2

[5] = tested on: MDR E. coli ASEC 2; assay: microbe, parasite or virus in culture; assay type: cell-based, Escherichia coli; conditions: microdilution, LB, 18 to 24 h, 37°C, three independent experiments
Experimental: as §2

[6] = tested on: MDR E. coli ASEC 19; assay: microbe, parasite or virus in culture; assay type: cell-based, Escherichia coli; conditions: microdilution, LB, 18 to 24 h, 37°C, three independent experiments
Experimental: as §2

[7] = tested on: MDR E. coli ASEC 15; assay: microbe, parasite or virus in culture; assay type: cell-based, Escherichia coli; conditions: microdilution, LB, 18 to 24 h, 37°C, three independent experiments
Experimental: as §2

[8] = tested on: MDR E. coli ASEC 10; assay: microbe, parasite or virus in culture; assay type: cell-based, Escherichia coli; conditions: microdilution, LB, 18 to 24 h, 37°C, three independent experiments
Experimental: as §2

[9] = tested on: MDR E. coli ASEC 6; assay: microbe, parasite or virus in culture; assay type: cell-based, Escherichia coli; conditions: microdilution, LB, 18 to 24 h, 37°C, three independent experiments
Experimental: as §2

[10] = tested on: MDR E. coli ASEC 17; assay: microbe, parasite or virus in culture; assay type: cell-based, Escherichia coli; conditions: microdilution, LB, 18 to 24 h, 37°C, three independent experiments
Experimental: as §2

[11] = tested on: MDR E. coli ASEC 18; assay: microbe, parasite or virus in culture; assay type: cell-based, Escherichia coli; conditions: microdilution, LB, 18 to 24 h, 37°C, three independent experiments
Experimental: as §2

[12] = tested on: MDR E. coli ASEC 9; assay: microbe, parasite or virus in culture; assay type: cell-based, Escherichia coli; conditions: microdilution, LB, 18 to 24 h, 37°C, three independent experiments
Experimental: as §2

[13] = tested on: MDR E. coli ASEC 8; assay: microbe, parasite or virus in culture; assay type: cell-based, Escherichia coli; conditions: microdilution, LB, 18 to 24 h, 37°C, three independent experiments
Experimental: as §2

[14] = tested on: MDR E. coli ASEC 3; assay: microbe, parasite or virus in culture; assay type: cell-based, Escherichia coli; conditions: microdilution, LB, 18 to 24 h, 37°C, three independent experiments
Experimental: as §2

[15] = tested on: MDR E. coli ASEC 13; assay: microbe, parasite or virus in culture; assay type: cell-based, Escherichia coli; conditions: microdilution, LB, 18 to 24 h, 37°C, three independent experiments
Experimental: as §2

[16] = tested on: MDR E. coli ASEC 4; assay: microbe, parasite or virus in culture; assay type: cell-based, Escherichia coli; conditions: microdilution, LB, 18 to 24 h, 37°C, three independent experiments
Experimental: as §2

[17] = tested on: MDR E. coli ASEC 5; assay: microbe, parasite or virus in culture; assay type: cell-based, Escherichia coli; conditions: microdilution, LB, 18 to 24 h, 37°C, three independent experiments
Experimental: as §2

[18] = tested on: MDR E. coli ASEC 7; assay: microbe, parasite or virus in culture; assay type: cell-based, Escherichia coli; conditions: microdilution, LB, 18 to 24 h, 37°C, three independent experiments
Experimental: as §2

[19] = tested on: MDR E. coli ASEC 16; assay: microbe, parasite or virus in culture; assay type: cell-based, Escherichia coli; conditions: microdilution, LB, 18 to 24 h, 37°C, three independent experiments
Experimental: as §2

[20] = tested on: MDR E. coli ASEC 14; assay: microbe, parasite or virus in culture; assay type: cell-based, Escherichia coli; conditions: microdilution, LB, 18 to 24 h, 37°C, three independent experiments
Experimental: as §2

[21] = tested on: MDR E. coli ASEC 11; assay: microbe, parasite or virus in culture; assay type: cell-based, Escherichia coli; conditions: microdilution, LB, 18 to 24 h, 37°C, three independent experiments
Experimental: as §2

[22] = tested on: MDR E. coli ASEC 1; assay: microbe, parasite or virus in culture; assay type: cell-based, Escherichia coli; conditions: microdilution, LB, 18 to 24 h, 37°C, three independent experiments
Experimental: as §2

[23] = tested on: A. baumannii KCTC 2508; assay type: cell-based, Acinetobacter baumannii; conditions: microdilution, NB, 18 to 24 h, 37°C, three independent experiments
Experimental: as §2

[24] = tested on: B. subtilis KCTC 2217; assay type: cell-based, Bacillus subtilis; conditions: microdilution, LB, 18 to 24 h, 37°C, three independent experiments
Experimental: as §2

[25] = tested on: S. Typhimurium KCTC 1926; assay type: cell-based, Salmonella enterica serovar Typhimurium; conditions: microdilution, NB, 18 to 24 h, 37°C, three independent experiments
Experimental: as §2

[26] = tested on: mouse red blood cells; assay: Hemolytic activity; assay type: cell-based; conditions: 8% mouse red blood cells, 1 h, 37°C
Experimental: as §1

CC[C@H](C)[C@H](NC(=O)CN)C(=O)NCC(=O)N[C@@H](C)C(=O)N[C@H](C(=O)N[C@@H](CC(C)C)C(=O)N[C@@H](CCCCN)C(=O)N[C@H](C(=O)N[C@@H](CC(C)C)C(=O)N[C@H](C(=O)N[C@H](C(=O)NCC(=O)N[C@@H](CC(C)C)C(=O)N1CCC[C@H]1C(=O)N[C@@H](C)C(=O)N[C@@H](CC(C)C)C(=O)N[C@H](C(=O)N[C@@H](CO)C(=O)N[C@@H](Cc1c[nH]c2ccccc12)C(=O)N[C@H](C(=O)N[C@@H](CCCCN)C(=O)N[C@@H](CCCNC(=N)N)C(=O)N[C@@H](CCCCN)C(=O)N[C@@H](CCCNC(=N)N)C(=O)N[C@@H](CCC(N)=O)C(=O)N[C@@H](CCC(N)=O)C(N)=O)[C@@H](C)CC)[C@@H](C)CC)[C@@H](C)O)[C@@H](C)O)C(C)C)C(C)C [Melittin]
2 µM: MIC [23] | MIC [24]
77.24%: hemolysis ([26]; 6.25 μM)
8 (22.77) μM: MIC [6] | MIC [10] | MIC [16]
4 (11.39) μM: MIC [4] | MIC [5] | MIC [7] | MIC [8] | MIC [9] | MIC [11] | MIC [12] | MIC [13] | MIC [14] | MIC [15] | MIC [18] | MIC [19] | MIC [21] | MIC [22]
2 (5.69) μM: MIC [17] | MIC [20]
over 50%: toxicity, MTT assay [1]
4 µM: MIC [2] | MIC [25]
44.02%: hemolysis ([26]; 3.125 μM, PBS, A414, mean of three experiments)
immediately damaged the cells: cytotoxicity, Cytotox green fluorescence [3]
